In the assay the test system is GFP-aid-NLS marker protein. The assay can be described thus: Induction of degradation of labeled protein of interest in transiently transfected COS1 cells, Western blot with GFP antibody. The assay is classed as cell-based, monkey. The conditions noted are these: 500 μM auxin, 5 hours. On the procedure: The EGFP segment of pIRES2-AcGFP1 (Clontech) was removed by treatment with restriction enzymes BstXI and NotI, into which EGFP-IAA17, which was amplified using pMK42 (an EGFP-IAA17-containing plasmid produced by the inventors) as a template and the following primer set, was inserted (the amplified sequence is shown in SEQ ID NO: 13). By this process, EGFP-IAA17 was cloned downstream of IRES. The resulting plasmid was treated with restriction enzymes XhoI and SmaI, and into this site, rice TIR1 tagged with 9Myc at its C terminus was inserted. By this process, the rice TIR1 was inserted between a CMV promoter and IRES, and the resulting plasmid was referred to as pNHK60. The pNHK60 was transferred into the proliferating COS1, CHO, and NIH3T3 cells using Lipofectamine 2000 (Invitrogen) for transient expression. The HEK293 cell shown in FIG. 4 is a HEK293 strain stably expressing pNHK60, which was obtained by transfer of the pNHK60 under the aforementioned conditions and subsequent selection by the addition of G418 to a medium.
In the experiment of transient expression, the cells were cultured in a medium to which 500 μM IAA or NAA was added, and after five hours, the cells were collected, from which extracts were prepared. […] The factors were detected by Western blotting.
The protein thus extracted was separated by SDS-PAGE and then transferred to a nitrocellulose membrane. Using an anti-Myc antibody (mouse monoclonal 9E10) and an anti-GFP antibody (mouse monoclonal 9E1), each kind of protein was detected by Western blotting. […] For migration control, total extracted proteins were detected by Ponceau staining. Since the […] TIR1 gene is tagged with 9Myc, the TIR1 protein can be detected by Western blotting with the aforementioned Myc antibody. Also, EGFP, which is a protein to be degraded in the complex protein, can be detected by Western blotting with the GFP antibody.
In a similar manner to Example 1, the induction of degradation of a labeled protein of interest was compared between the case in which an expression vector having the TIR1 family protein gene from rice linked between a virus promoter and IRES and the chimeric gene expressing a labeled protein of interest linked downstream thereof was transferred (corresponding to A in FIG. 5) and the case in which an expression vector having the chimeric gene expressing a labeled protein of interest linked between a virus promoter and IRES and the TIR1 family protein gene from rice linked downstream thereof was transferred (corresponding to B in FIG. 5). […] After extraction of a protein sample, the expressed GFP-aid-NLS marker protein was detected by Western blotting using the GFP antibody.

The mark [1] stands for this setting: DNA construct A (rice TIR1 between virus promoter and IRES, chimeric gene downstream).
The mark [2] stands for this setting: DNA construct B (chimeric gene between virus promoter and IRES, rice TIR1 downstream).

Turning to `O=C(O)Cc1cccc2ccccc12` [NAA, 1-naphthaleneacetic acid], the “depletion of expressed GFP-aid-NLS marker protein” value reads like this: under setting [1], “efficiently depleted”; under setting [2], “no outstanding depletion”.
The like results for `O=C(O)Cc1c[nH]c2ccccc12` [IAA, indole-3-acetic acid] were, in that order, “efficiently depleted” and “no outstanding depletion”.

The values are drawn from patent US20120115232A1, “METHOD FOR INDUCING DEGRADATION OF PROTEIN IN MAMMALIAN CELL” (OSAKA UNIVERSITY, priority 2009, published 2012).
